# According to patent US6391917B1, “Dialkyl ureas as calcitonin mimetics” (ZymoGenetics, Inc., priority 1998, dated 2002):
# What was measured:
# [1] = biological target: T1, Human calcitonin receptor (Homo sapiens, UniProt P30988); assay: CRE-luciferase assay for calcitonin mimetics (Hollex-1); type: cell-based
# T1 construct: expressed in transfected cells; host or cells: BHK-570 (Hollex-1)
# T1 sequence (P30988 25-474): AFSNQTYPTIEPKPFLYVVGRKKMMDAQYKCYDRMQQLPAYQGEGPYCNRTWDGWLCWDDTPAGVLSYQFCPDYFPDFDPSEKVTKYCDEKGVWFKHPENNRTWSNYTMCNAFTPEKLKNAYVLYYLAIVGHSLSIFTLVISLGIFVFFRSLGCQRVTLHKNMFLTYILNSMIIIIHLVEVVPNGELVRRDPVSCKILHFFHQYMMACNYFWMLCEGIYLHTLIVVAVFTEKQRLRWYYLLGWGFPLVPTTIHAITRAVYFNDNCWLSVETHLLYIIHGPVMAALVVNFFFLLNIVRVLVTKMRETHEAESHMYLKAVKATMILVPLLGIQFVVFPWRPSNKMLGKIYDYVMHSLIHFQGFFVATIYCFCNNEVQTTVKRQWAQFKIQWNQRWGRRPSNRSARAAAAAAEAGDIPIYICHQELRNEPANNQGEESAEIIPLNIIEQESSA
# Method: CRE-Luciferase Assay Method for Calcitonin Mimetics
# Human calcitonin receptor-positive and receptor-negative BHK-570 (Baby Hamster Kidney) cell lines were maintained by serial passage in growth medium (DMEM supplemented with 10% heat-inactivated fetal calf serum (HI-FCS), 2 mM L-glutamine, 1 mM sodium pyruvate, 250 nM MTX, and 1 mg/mL G418). On the day prior to assay, cells were trypsinized, adjusted to 2.5×10^5 cells/ml in growth medium, plated in opaque white Dynatech Microlite microtiter tissue culture plates at 50 μL/well, and grown overnight to confluence (37° C., 5% CO2 atmosphere).
# Test substances were prepared in DMSO or 10% DMF at 100 times the final desired assay concentration. […] Controls were included on each plate: untreated wells (basal), […], and 100 nM human calcitonin. DMSO or DMF was included in control wells at a concentration equal to that in test samples (not to exceed a final assay concentration of 2% DMSO or 0.5% DMF, with a preferred maximum of 1% DMSO or 0.1% DMF).
# Plates were incubated for 3 to 8 hours (4 hours preferred) at 37° C. in an atmosphere of 5% CO2. Following induction, luciferase activity was measured using a Promega luciferase assay kit (E1500) according to the assay kit protocol (Promega Corp., Madison, Wis.). Briefly, assay medium was removed and cells were washed once with phosphate buffered saline (PBS). After the wash, 25 μl of lysis buffer was added to each well, and the plates were incubated for 15 minutes at room temperature. Fifty microliters of Luciferase Assay Substrate (Promega, Corp.) was added to each well and the plates were transferred to a Labsystems Lumiscan microtiter luminometer (Labsystems Inc., Morton Grove, Ill.). The amount of luminescence (relative light units, RLU) was determined following a 0.1 second/well integration of signal. Basal (uninduced) luciferase signal was subtracted from all measurements, and the luciferase signal induced by test samples was expressed as a percentage of the signal in the calcitonin and forskolin controls. Specificity of the luciferase induction for calcitonin receptor-positive cell lines was determined by comparing the percent control values in the calcitonin receptor-positive line (Hollex-1) to those observed in the calcitonin receptor-negative cell line (KZ10-20-48/Zem 228) and the PTH receptor-positive cell line (KZ10-20-48/PTH-20) described below. Samples inducing a signal over the basal level were selected for further characterization, see Table 1 for examples.
# [2] = tested on: osteoclasts in mouse calvariae; assay: Calvaria histology (osteoclast number and size, toxicity); type: cell-based; conditions: mouse calvariae, PTH 1-34 treatment
# Excerpt: To confirm the findings in the calvarial bone resorption assay employing calcium release from culture mouse calvariae, selected bones were fixed in 10% neutral buffered formalin and demineralized in 5% formic acid with 5% formalin. The bones were dehydrated through an ascending series of ethanol concentrations, infiltrated in glycol methacrylate, and embedded using a JB-4 embedding kit (PolySciences, Warrington, Pa.) (Liu, et al., J. Bone Mineral Res. 5:973-82, 1990). When necessary, an alternative embedding method (paraffin embedding) was used to speed up the embedding process. Cross sections of calvariae cut at 5 μm were obtained and stained for tartrate-resistant acid phosphatase (TRAP) activity and counterstained with methyl green and thionin for cell morphology (Liu, et al., ibid.). Osteoclasts were identified by TRAP stain, multinucleation, large cell size, and irregular cell shape. The number of osteoclasts were counted from endocranial and ectocranial bone surfaces and expressed as number/mm perimeter. The size of all the osteoclasts counted was also measured using a Bone Morphometry program (Liu, et al., ibid.; Bain, et al., J. Bone Miner. Res. 8:435-42, 1993). […] This PTH-induced increase was suppressed by treatment with human calcitonin.
# Calcitonin mimetic compounds were evaluated in a similar fashion for their ability to suppress PTH-induced increases in osteoclast number and size (Table 2). Cell toxicity (or death) was also evaluated by the appearance of pyknotic nuclei in a small number of bone cells. With an increased level of toxicity, a further increase in the number of these pyknotic nuclei, detachment of cells from bone surfaces, and losses of cytoplasmic stain and cell boundaries were observed. The osteocytic space also appeared empty.
smiles,measurement,setting,value
C=CCNC(=O)[C@@H](Cc1ccc(I)cc1)NC(=O)Nc1cc(C(C)(C)C)ccc1C(C)(C)C [628-034],"Luciferase induction (% of maximum luciferase induction produced by CT, 100 nM)",[1]; crude compound 6.25 μg/ml,6.89%
same,"Luciferase induction (% of maximum luciferase induction produced by CT, 100 nM)",[1]; crude compound 12.5 μg/ml,25.02%
same,"Luciferase induction (% of maximum luciferase induction produced by CT, 100 nM)",[1]; crude compound 25 μg/ml,33.86%
same,"Luciferase induction (% of maximum luciferase induction produced by CT, 100 nM)",[1]; crude compound 50 μg/ml,38.68%
C=CCNC(=O)[C@H](NC(=O)Nc1cc(C(C)(C)C)ccc1C(C)(C)C)c1ccccc1 [628-036],"Luciferase induction (% of maximum luciferase induction produced by CT, 100 nM)",[1]; crude compound 6.25 μg/ml,4.12%
same,"Luciferase induction (% of maximum luciferase induction produced by CT, 100 nM)",[1]; crude compound 12.5 μg/ml,6.43%
same,"Luciferase induction (% of maximum luciferase induction produced by CT, 100 nM)",[1]; crude compound 25 μg/ml,8.0%
same,"Luciferase induction (% of maximum luciferase induction produced by CT, 100 nM)",[1]; crude compound 50 μg/ml,10.38%
CC(C)(C)c1ccc(C(C)(C)C)c(NC(=O)N[C@H](Cc2ccc(Cl)cc2)C(=O)NCc2ccccc2)c1 [628-042],"Luciferase induction (% of maximum luciferase induction produced by CT, 100 nM)",[1]; crude compound 3.125 μg/ml,19.16%
same,"Luciferase induction (% of maximum luciferase induction produced by CT, 100 nM)",[1]; crude compound 6.25 μg/ml,49.17%
same,"Luciferase induction (% of maximum luciferase induction produced by CT, 100 nM)",[1]; crude compound 12.5 μg/ml,59.74%
same,"Luciferase induction (% of maximum luciferase induction produced by CT, 100 nM)",[1]; crude compound 25 μg/ml,68.69%
same,"Luciferase induction (% of maximum luciferase induction produced by CT, 100 nM)",[1]; crude compound 50 μg/ml,60.41%
CC(C)(C)c1ccc(C(C)(C)C)c(NC(=O)N[C@H](Cc2ccc(F)cc2)C(=O)NCc2ccccc2)c1 [628-043],"Luciferase induction (% of maximum luciferase induction produced by CT, 100 nM)",[1]; crude compound 3.125 μg/ml,6.48%
same,"Luciferase induction (% of maximum luciferase induction produced by CT, 100 nM)",[1]; crude compound 6.25 μg/ml,34.53%
same,"Luciferase induction (% of maximum luciferase induction produced by CT, 100 nM)",[1]; crude compound 12.5 μg/ml,42.06%
same,"Luciferase induction (% of maximum luciferase induction produced by CT, 100 nM)",[1]; crude compound 25 μg/ml,46.24%
same,"Luciferase induction (% of maximum luciferase induction produced by CT, 100 nM)",[1]; crude compound 50 μg/ml,47.95%
CC(C)(C)c1ccc(C(C)(C)C)c(NC(=O)N[C@H](Cc2ccc(I)cc2)C(=O)NCc2ccccc2)c1 [628-044],"Luciferase induction (% of maximum luciferase induction produced by CT, 100 nM)",[1]; crude compound 3.125 μg/ml,10.65%
same,"Luciferase induction (% of maximum luciferase induction produced by CT, 100 nM)",[1]; crude compound 6.25 μg/ml,24.08%
same,"Luciferase induction (% of maximum luciferase induction produced by CT, 100 nM)",[1]; crude compound 12.5 μg/ml,29.35%
same,"Luciferase induction (% of maximum luciferase induction produced by CT, 100 nM)",[1]; crude compound 25 μg/ml,26.23%
same,"Luciferase induction (% of maximum luciferase induction produced by CT, 100 nM)",[1]; crude compound 50 μg/ml,30.14%
CC(C)(C)c1ccc(C(C)(C)C)c(NC(=O)N[C@H](Cc2ccc3ccccc3c2)C(=O)NCc2ccccc2)c1 [628-045],"Luciferase induction (% of maximum luciferase induction produced by CT, 100 nM)",[1]; crude compound 3.125 μg/ml,20.19%
same,"Luciferase induction (% of maximum luciferase induction produced by CT, 100 nM)",[1]; crude compound 6.25 μg/ml,38.73%
same,"Luciferase induction (% of maximum luciferase induction produced by CT, 100 nM)",[1]; crude compound 12.5 μg/ml,42.49%
same,"Luciferase induction (% of maximum luciferase induction produced by CT, 100 nM)",[1]; crude compound 25 μg/ml,44.51%
same,"Luciferase induction (% of maximum luciferase induction produced by CT, 100 nM)",[1]; crude compound 50 μg/ml,40.62%
CC(C)(C)c1ccc(C(C)(C)C)c(NC(=O)N[C@H](Cc2ccc(Cl)cc2)C(=O)NCc2ccc3ccccc3c2)c1 [628-052],"Luciferase induction (% of maximum luciferase induction produced by CT, 100 nM)",[1]; crude compound 3.125 μg/ml,9.57%
same,"Luciferase induction (% of maximum luciferase induction produced by CT, 100 nM)",[1]; crude compound 6.25 μg/ml,23.59%
same,"Luciferase induction (% of maximum luciferase induction produced by CT, 100 nM)",[1]; crude compound 12.5 μg/ml,36.63%
same,"Luciferase induction (% of maximum luciferase induction produced by CT, 100 nM)",[1]; crude compound 25 μg/ml,40.21%
same,"Luciferase induction (% of maximum luciferase induction produced by CT, 100 nM)",[1]; crude compound 50 μg/ml,38.27%
CC(C)(C)c1ccc(C(C)(C)C)c(NC(=O)N[C@H](Cc2ccc(F)cc2)C(=O)NCc2ccc3ccccc3c2)c1 [628-053],"Luciferase induction (% of maximum luciferase induction produced by CT, 100 nM)",[1]; crude compound 3.125 μg/ml,3.29%
same,"Luciferase induction (% of maximum luciferase induction produced by CT, 100 nM)",[1]; crude compound 6.25 μg/ml,11.89%
same,"Luciferase induction (% of maximum luciferase induction produced by CT, 100 nM)",[1]; crude compound 12.5 μg/ml,32.31%
same,"Luciferase induction (% of maximum luciferase induction produced by CT, 100 nM)",[1]; crude compound 25 μg/ml,41.8%
same,"Luciferase induction (% of maximum luciferase induction produced by CT, 100 nM)",[1]; crude compound 50 μg/ml,40.14%
CC(C)(C)c1ccc(C(C)(C)C)c(NC(=O)N[C@H](Cc2ccc(I)cc2)C(=O)NCc2ccc3ccccc3c2)c1 [628-054],"Luciferase induction (% of maximum luciferase induction produced by CT, 100 nM)",[1]; crude compound 3.125 μg/ml,10.73%
same,"Luciferase induction (% of maximum luciferase induction produced by CT, 100 nM)",[1]; crude compound 6.25 μg/ml,27.05%
same,"Luciferase induction (% of maximum luciferase induction produced by CT, 100 nM)",[1]; crude compound 12.5 μg/ml,42.54%
same,"Luciferase induction (% of maximum luciferase induction produced by CT, 100 nM)",[1]; crude compound 25 μg/ml,47.47%
same,"Luciferase induction (% of maximum luciferase induction produced by CT, 100 nM)",[1]; crude compound 50 μg/ml,54.86%
CC(C)(C)c1ccc(C(C)(C)C)c(NC(=O)N[C@@H](C(=O)NCc2ccc3ccccc3c2)c2ccccc2)c1 [628-056],"Luciferase induction (% of maximum luciferase induction produced by CT, 100 nM)",[1]; crude compound 3.125 μg/ml,4.2%
same,"Luciferase induction (% of maximum luciferase induction produced by CT, 100 nM)",[1]; crude compound 6.25 μg/ml,14.7%
same,"Luciferase induction (% of maximum luciferase induction produced by CT, 100 nM)",[1]; crude compound 12.5 μg/ml,28.6%
same,"Luciferase induction (% of maximum luciferase induction produced by CT, 100 nM)",[1]; crude compound 25 μg/ml,35.6%
same,"Luciferase induction (% of maximum luciferase induction produced by CT, 100 nM)",[1]; crude compound 50 μg/ml,37.1%
"CC[C@H](C)[C@H](NC(=O)[C@H](C)NC(=O)[C@@H](NC(=O)[C@H](CCC(N)=O)NC(=O)[C@@H]1CCCN1C(=O)[C@H](Cc1ccccc1)NC(=O)[C@@H](NC(=O)[C@H](Cc1c[nH]cn1)NC(=O)[C@H](Cc1ccccc1)NC(=O)[C@H](CCCCN)NC(=O)[C@H](CC(N)=O)NC(=O)[C@H](Cc1ccccc1)NC(=O)[C@H](CC(=O)O)NC(=O)[C@H](CCC(N)=O)NC(=O)[C@@H](NC(=O)[C@H](Cc1ccc(O)cc1)NC(=O)[C@@H](NC(=O)CNC(=O)[C@H](CC(C)C)NC(=O)[C@H](CCSC)NC(=O)[C@@H]1CSSC[C@H](N)C(=O)NCC(=O)N[C@@H](CC(N)=O)C(=O)N[C@@H](CC(C)C)C(=O)N[C@@H](CO)C(=O)N[C@@H]([C@@H](C)O)C(=O)N1)[C@@H](C)O)[C@@H](C)O)[C@@H](C)O)[C@@H](C)O)C(=O)NCC(=O)N[C@H](C(=O)NCC(=O)N[C@@H](C)C(=O)N1CCC[C@H]1C(N)=O)C(C)C [human calcitonin, reference compound]",PTH-induced increase in number and size of osteoclasts,[2],suppressed
